Columns and labels:
Assay in all cases: 3H-thymidine assay
Type in all cases: cell-based
G-361 melanoma cells = settings: Homo sapiens
[1] = tested on: Tp 483 MG glioblastoma cells
A-375 melanoma cells = settings: Homo sapiens
Daudi leukemic cells = settings: Homo sapiens
[2] = tested on: GV-1 prostate carcinoma cells
[3] = G-361, read-out: 3H-thymidine tracer (%) of control
[4] = read-out: 3H-thymidine insertion (%) of control
[5] = read-out: active substance concentration at which 3H-thymidine insertion was 50% inhibited
[6] = A-375, read-out: 3H-thymidine tracer (%) of control
[7] = read-out: 3H-thymidine tracer (%) of control

How did the activity at 1 µM (G-361 melanoma cells; [3]) turn out when `O=c1ccc2cc(O[C@@H]3O[C@H](CO)[C@@H](O)[C@H](O)[C@H]3O)c(O)cc2o1` [Esculin, 6-beta-D-glucopyranosyloxy-7-hydroxy-1,2-benzopyrone] was run?
The activity at 1 µM was 98%.

What about the activity at 2 µM (G-361 melanoma cells; [3]) of the same compound?
Its activity at 2 µM is 94%.

What about the activity at 4 µM (G-361 melanoma cells; [3]) of the same compound?
The activity at 4 µM was 90%.

What about the activity at 8 µM (G-361 melanoma cells; [3]) of the same compound?
The activity at 8 µM was 86%.

And the activity at 16 µM (G-361 melanoma cells; [3])?
Its activity at 16 µM is 81%.

And the activity at 25 µM (G-361 melanoma cells; [3])?
Its activity at 25 µM is 74%.

What about the activity at 50 µM (G-361 melanoma cells; [3]) of the same compound?
The activity at 50 µM was 70%.

And the activity at 100 µM (G-361 melanoma cells; [3])?
The activity at 100 µM was 63%.

And the activity at 250 µM (G-361 melanoma cells; [3])?
The activity at 250 µM was 60%.

What about the activity at 500 µM (G-361 melanoma cells; [3]) of the same compound?
Its activity at 500 µM is 54%.

What about the IC50 (G-361 melanoma cells; G-361, read-out: active substance concentration at which 3H-thymidine insertion was 50% inhibited) of the same compound?
The IC50 was greater than 500 µM.

And the activity at 1 µM [1, 4]?
The activity at 1 µM was 99%.

And the activity at 2 µM [1, 4]?
Its activity at 2 µM is 97%.

What about the activity at 4 µM [1, 4] of the same compound?
The activity at 4 µM was 89%.

And the activity at 8 µM [1, 4]?
Its activity at 8 µM is 83%.

And the activity at 16 µM [1, 4]?
Its activity at 16 µM is 74%.

What about the activity at 25 µM [1, 4] of the same compound?
The activity at 25 µM was 66%.

And the activity at 50 µM [1, 4]?
Its activity at 50 µM is 54%.

What about the activity at 100 µM [1, 4] of the same compound?
The activity at 100 µM was 51%.

And the activity at 250 µM [1, 4]?
The activity at 250 µM was 48%.

What about the activity at 500 µM [1, 4] of the same compound?
The activity at 500 µM was 45%.

What about the IC50 [1, 5] of the same compound?
The IC50 was 100 µM.

And the activity at 1 µM (A-375 melanoma cells; [6])?
Its activity at 1 µM is 100%.

What about the activity at 2 µM (A-375 melanoma cells; [6]) of the same compound?
The activity at 2 µM was 96%.

What about the activity at 4 µM (A-375 melanoma cells; [6]) of the same compound?
The activity at 4 µM was 93%.

And the activity at 8 µM (A-375 melanoma cells; [6])?
Its activity at 8 µM is 87%.

What about the activity at 16 µM (A-375 melanoma cells; [6]) of the same compound?
The activity at 16 µM was 82%.

And the activity at 25 µM (A-375 melanoma cells; [6])?
Its activity at 25 µM is 78%.

And the activity at 50 µM (A-375 melanoma cells; [6])?
Its activity at 50 µM is 71%.

And the activity at 100 µM (A-375 melanoma cells; [6])?
Its activity at 100 µM is 64%.

What about the activity at 250 µM (A-375 melanoma cells; [6]) of the same compound?
Its activity at 250 µM is 60%.

And the activity at 500 µM (A-375 melanoma cells; [6])?
The activity at 500 µM was 57%.

And the IC50 (A-375 melanoma cells; A-375, read-out: active substance concentration at which 3H-thymidine insertion was 50% inhibited)?
Its IC50 is greater than 500 µM.

What about the activity at 1 µM (Daudi leukemic cells; [7]) of the same compound?
The activity at 1 µM was 100%.

What about the activity at 2 µM (Daudi leukemic cells; [7]) of the same compound?
The activity at 2 µM was 98%.

What about the activity at 4 µM (Daudi leukemic cells; [7]) of the same compound?
The activity at 4 µM was 93%.

And the activity at 8 µM (Daudi leukemic cells; [7])?
The activity at 8 µM was 87%.

What about the activity at 16 µM (Daudi leukemic cells; [7]) of the same compound?
The activity at 16 µM was 80%.

And the activity at 25 µM (Daudi leukemic cells; [7])?
The activity at 25 µM was 71%.

What about the activity at 50 µM (Daudi leukemic cells; [7]) of the same compound?
The activity at 50 µM was 69%.

What about the activity at 100 µM (Daudi leukemic cells; [7]) of the same compound?
The activity at 100 µM was 52%.

What about the activity at 250 µM (Daudi leukemic cells; [7]) of the same compound?
Its activity at 250 µM is 48%.

And the activity at 500 µM (Daudi leukemic cells; [7])?
Its activity at 500 µM is 44%.

What about the IC50 (Daudi leukemic cells; [5]) of the same compound?
The IC50 was 100 µM.

And the activity at 1 µM [2, 7]?
Its activity at 1 µM is 97%.

And the activity at 2 µM [2, 7]?
The activity at 2 µM was 95%.

And the activity at 4 µM [2, 7]?
The activity at 4 µM was 85%.

And the activity at 8 µM [2, 7]?
Its activity at 8 µM is 84%.

And the activity at 16 µM [2, 7]?
Its activity at 16 µM is 79%.

And the activity at 25 µM [2, 7]?
The activity at 25 µM was 76%.

And the activity at 50 µM [2, 7]?
Its activity at 50 µM is 68%.

What about the activity at 100 µM [2, 7] of the same compound?
The activity at 100 µM was 60%.

What about the activity at 250 µM [2, 7] of the same compound?
The activity at 250 µM was 51%.

What about the activity at 500 µM [2, 7] of the same compound?
The activity at 500 µM was 43%.

And the IC50 [2, 5]?
Its IC50 is 250 µM.
